Measurements published in patent US20140000886A1, “PETROLEUM RECOVERY PROCESS AND SYSTEM” (Shell Oil Company, priority 2012, published 2014).

Assay: Oil recovery from formation core by brine displacement followed by DMS displacement
Details: after waterflooding with a brine solution
Experimental: Incremental recovery of oil from a formation core using an oil recovery formulation consisting of dimethyl sulfide following oil recovery from the core by water-flooding was measured to evaluate the effectiveness of DMS as a tertiary oil recovery agent.
Two 5.02 cm long Berea sandstone cores with a core diameter of 3.78 cm and a permeability between 925 and 1325 mD were saturated with a brine having a composition as set forth in Table 7.
After saturation of the cores with brine, the brine was displaced by a Middle Eastern Asphaltic crude oil having the characteristics as set forth above in Table 3 to saturate the cores with oil.
Oil was recovered from each oil saturated core by the addition of brine to the core under pressure and by subsequent addition of DMS to the core under pressure. Each core was treated as follows to determine the amount of oil recovered from the core by addition of brine followed by addition of DMS. Oil was initially displaced from the core by addition of brine to the core under pressure. A confining pressure of 1 MPa was applied to the core during addition of the brine, and the flow rate of brine to the core was set at 0.05 ml/min. The core was maintained at a temperature of 50° C. during displacement of oil from the core with brine. […]

Oil recovered, of the oil remaining in the core after the waterflood: approximately 60%
SMILES: CSC [Dimethyl Sulfide, dimethyl sulfide]
